The source of these data is patent US20110124715A1, “Antiviral Oligonucleotides Having a Conserved G4 Core Sequence” (priority 1992, published 2011).

Where “and” joins values, the source holds several entries; their conditions need not be identical. Equal values may be shown once. Strand notation (5' to 3'): a small letter for the sugar, then the base; units joined by * are phosphorothioate-linked, units joined directly phosphodiester-linked; [ ] holds rarer units or linkages, { } end groups; capitals alone tell only the bases. d = 2'-deoxy (DNA)

The target of the first data set is T1, human type II phospholipase A2 (Homo sapiens, UniProt P14555).
T1 sequence (P14555 21-144): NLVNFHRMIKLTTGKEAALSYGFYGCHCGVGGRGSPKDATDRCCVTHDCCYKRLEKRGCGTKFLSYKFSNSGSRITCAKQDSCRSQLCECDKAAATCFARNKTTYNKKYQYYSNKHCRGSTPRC
The data set can be described thus: Phospholipase A2 assay, 3H-oleic acid labelled E. coli substrate. It is filed as biochemical. The conditions noted are these: Table 4; 1 μM.
As to “3181 (antisense dT*dC*dT*dG*dC*dC*dC*dC*dG*dG*dC*dC*dG*dT*dC*dG*dC*dT*dC*dC*dC) [compound 3181]”, the “% Inhibition (1 μM)” value stood at 42.7%.
The same measure, in the same setting: the figure for “3182 (antisense dC*dA*dG*dA*dG*dG*dA*dC*dT*dC*dC*dA*dG*dA*dG*dT*dT*dG*dT*dA*dT) [compound 3182]” is 30.2%; for “3184 (antisense dT*dT*dC*dA*dT*dG*dG*dT*dA*dA*dG*dA*dG*dT*dT*dC*dT*dT*dG*dG*dG) [compound 3184]” it is 25.1%.
On the same count and under the same terms, the figure for “3185 (antisense CAAAGATCATGATCACTGCCA; phosphorothioate, chemistry not fully specified) [compound 3185]” is 22.7%.
Turning to “3192 (dG*dG*dA*dA*dG*dG*dT*dT*dT*dC*dC*dA*dG*dG*dG*dA*dA*dG*dA*dG*dG) [compound 3192]”, the “% Inhibition (1 μM)” value is listed as 28.1%.
The same measure, in the same setting: the figure for “3193 (dC*dC*dT*dG*dC*dA*dG*dT*dA*dG*dG*dC*dC*dT*dG*dG*dA*dA*dG*dG*dA) [compound 3193]” is 22.6%; for “3196 (dG*dG*dG*dT*dG*dG*dG*dT*dA*dT*dA*dG*dA*dA*dG*dG*dG*dC*dT*dC*dC) [compound 3196]” it is 98.5%; for “3468 (dG*dG*dG*dA*dC*dT*dC*dA*dG*dC*dA*dA*dC*dG*dA*dG*dG*dG*dG*dT*dG) [compound 3468]” it is 97.5%.
On the same count and under the same terms, the figure for “3470 (dG*dT*dA*dG*dG*dG*dA*dG*dG*dG*dA*dG*dG*dG*dT*dA*dT*dG*dA*dG*dA) [compound 3470]” is 88.9%.
On the same count and under the same terms, the figure for “3471 (dA*dA*dG*dG*dA*dA*dC*dT*dT*dG*dG*dT*dT*dA*dG*dG*dG*dT*dA*dG*dG) [compound 3471]” is 34.5%; for “3472 (dT*dG*dG*dG*dT*dG*dA*dG*dG*dG*dA*dT*dG*dC*dT*dT*dT*dC*dT*dG*dC) [compound 3472]” it is 69.0%.
With “3473 (dC*dT*dG*dC*dC*dT*dG*dG*dC*dC*dT*dC*dT*dA*dG*dG*dA*dT*dG*dG*dG) [compound 3473]”, the “% Inhibition (1 μM)” value is on record as 25.9%.
On the same count and under the same terms, the figure for “3474 (dA*dT*dA*dG*dA*dA*dG*dG*dG*dC*dT*dC*dC*dT*dG*dC*dC*dT*dG*dG*dC) [compound 3474]” is 13.3%; for “3475 (dT*dC*dT*dC*dA*dT*dT*dC*dT*dG*dG*dG*dT*dG*dG*dG*dT*dA*dT*dA*dG) [compound 3475]” it is 67.0%; for “3476 (dG*dC*dT*dG*dG*dA*dA*dA*dT*dC*dT*dG*dC*dT*dG*dG*dA*dT*dG*dT*dC) [compound 3476]” it is 43.4%.
The same measure, in the same setting: the figure for “3477 (dG*dT*dG*dG*dA*dG*dG*dA*dG*dA*dG*dC*dA*dG*dT*dA*dG*dA*dA*dG*dG) [compound 3477]” is 54.7%; for “3478 (dT*dG*dG*dT*dT*dA*dA*dG*dC*dA*dC*dG*dG*dA*dG*dT*dT*dG*dA*dG*dG) [compound 3478]” it is 26.4%.
The same measure, in the same setting: the figure for “3479 (dC*dC*dG*dG*dA*dG*dT*dA*dC*dA*dG*dC*dT*dT*dC*dT*dT*dT*dG*dG*dT) [compound 3479]” is 42.3%; for “3480 (dT*dT*dG*dC*dT*dT*dT*dA*dT*dT*dC*dA*dG*dA*dA*dG*dA*dG*dA*dC*dC) [compound 3480]” it is 24.5%; for “3481 (dT*dT*dT*dT*dT*dG*dA*dT*dT*dT*dG*dC*dT*dA*dA*dT*dT*dG*dC*dT*dT) [compound 3481]” it is 2.2%.
“3628 (dG*dG*dA*dG*dC*dC*dC*dT*dT*dC*dT*dA*dT*dA*dC*dC*dC*dA*dC*dC*dC) [compound 3628]”: the “% Inhibition (1 μM)” value is 13.6%.
On the same count and under the same terms, the figure for “3629 (dC*dA*dC*dC*dC*dC*dT*dC*dG*dT*dT*dG*dC*dT*dG*dA*dG*dT*dC*dC*dC) [compound 3629]” is 20.5%; for “3630 (dT*dC*dT*dC*dA*dT*dA*dC*dC*dC*dT*dC*dC*dC*dT*dC*dC*dC*dT*dA*dC) [compound 3630]” it is 17.6%; for “3631 (dA*dG*dG*dT*dC*dG*dA*dG*dG*dA*dG*dT*dG*dG*dT*dC*dT*dG*dA*dG*dC) [compound 3631]” it is 20.7%.
As for “3632 (dC*dC*dA*dG*dG*dA*dG*dA*dG*dG*dT*dC*dG*dG*dT*dA*dA*dG*dG*dC*dG) [compound 3632]”, the “% Inhibition (1 μM)” value came to 29.2%.
On the same count and under the same terms, the figure for “3633 (dG*dT*dA*dG*dG*dG*dA*dT*dG*dG*dG*dA*dG*dT*dG*dA*dA*dG*dG*dA*dG) [compound 3633]” is 58.5%.
Turning to “3659 (dT*dG*dC*dT*dC*dC*dT*dC*dC*dT*dT*dG*dG*dT*dG*dG*dC*dT*dC*dT*dC) [compound 3659]”, the “% Inhibition (1 μM)” value came to 38.2%.
As to “3663 (dC*dT*dC*dT*dG*dC*dT*dG*dG*dG*dT*dG*dG*dT*dC*dT*dC*dA*dA*dC*dT) [compound 3663]”, the “% Inhibition (1 μM)” value worked out at 16.3%.
The same measure, in the same setting: the figure for “3665 (dG*dG*dA*dC*dT*dG*dG*dC*dC*dT*dA*dG*dC*dT*dC*dC*dT*dC*dT*dG*dC) [compound 3665]” is 45.8%; for “3669 (dG*dG*dT*dG*dA*dC*dA*dA*dA*dT*dG*dC*dA*dG*dA*dT*dG*dG*dA*dC*dT) [compound 3669]” it is 34.7%; for “3671 (dT*dA*dG*dG*dA*dG*dG*dG*dT*dC*dT*dT*dC*dA*dT*dG*dG*dT*dA*dA*dG) [compound 3671]” it is 49.3%.
For the substance “3676 (dA*dG*dC*dT*dC*dT*dT*dA*dC*dC*dA*dA*dA*dG*dA*dT*dC*dA*dT*dG*dA) [compound 3676]”, the “% Inhibition (1 μM)” value amounted to 24.5%.
Consider “3679 (dA*dG*dT*dA*dG*dG*dC*dC*dT*dG*dG*dA*dA*dG*dG*dA*dA*dA*dT*dT*dT) [compound 3679]”, for which the “% Inhibition (1 μM)” value is 30.3%.
As for “3688 (dT*dG*dG*dC*dC*dT*dC*dA*dC*dC*dG*dA*dT*dC*dC*dG*dT*dT*dG*dC*dA) [compound 3688]”, the “% Inhibition (1 μM)” value is reported as 43.1%.
Still for that read-out and setting: the figure for “3694 (dA*dC*dA*dG*dC*dA*dG*dC*dT*dG*dT*dG*dA*dG*dG*dA*dG*dA*dC*dA*dC) [compound 3694]” is 28.2%; for “3697 (dA*dC*dT*dC*dT*dT*dA*dC*dC*dA*dC*dA*dG*dG*dT*dG*dA*dT*dT*dC*dT) [compound 3697]” it is 39%; for “3712 (dA*dG*dG*dA*dG*dT*dC*dC*dT*dG*dT*dT*dT*dT*dG*dA*dA*dA*dT*dC*dA) [compound 3712]” it is 31.8%.
Same read-out and setting: the figure for “4133 (dA*dG*dT*dG*dC*dA*dC*dG*dT*dT*dG*dA*dG*dT*dA*dT*dG*dT*dG*dA*dG) [compound 4133]” is 37.3%; for “4149 (dC*dT*dA*dC*dG*dG*dC*dA*dG*dA*dG*dA*dC*dG*dA*dG*dA*dT*dA*dG*dC) [compound 4149]” it is 20.2%.

Staying with this data set, now noted: Table 5; 1 μM; two separate experiments.
Take “3196 (dG*dG*dG*dT*dG*dG*dG*dT*dA*dT*dA*dG*dA*dA*dG*dG*dG*dC*dT*dC*dC) [compound 3196]”: the “% Inhibition (1 μM)” value was 100% and 76.2%.
On the same count and under the same terms, the figure for “4672 (dG*dG*dG*dT*dG*dG*dG*dT*dA*dT*dA*dG) [compound 4672]” is 73.9% and 94.6%; for “4946 (dG*dG*dG*dT*dG*dG*dG*dA*dA*dT*dA*dG) [compound 4946]” it is 73.2%.

The data set is the same for the next values; noted with them: b86; fold higher.
“3628 (dG*dG*dA*dG*dC*dC*dC*dT*dT*dC*dT*dA*dT*dA*dC*dC*dC*dA*dC*dC*dC) [compound 3628]”: the “I.C.50 relative to ISIS 3196” value was “approximately 10 fold”.
